Test results: ChEMBL document CHEMBL5728923, “Cyclin dependent kinase inhibitors” (2022)
pKi: −log10 of the molar value.

Target: Cyclin-dependent kinase 4/cyclin D1 (Homo sapiens, UniProt P11802+P24385)
Test: Mobility Shift Assay : The purpose CDK4/Cyclin D1 assay is to evaluate the inhibition (% inhibition, Kiapp and Ki values) in the presence of small molecule inhibitors by using a fluorescence based microfluidic mobility shift assay. CDK4/Cyclin D1 catalyzes the production of ADP from ATP that accompanies the phosphoryl transfer to the substrate peptide 5-FAM-Dyrktide (5-FAM-[…]) (SEQ ID NO:1). The mobility shift assay electrophoretically separates the fluorescently labeled peptides (substrate and phosphorylated product) following the kinase reaction. Both substrate and product are measured and the ratio of these values is used to generate % Conversion of substrate to product by the LabChip EZ Reader. […] The reaction was stopped after 195 minutes by the addition of 50 μL of 30 mM EDTA. Ki determinations were made from a plot of the fractional velocity as a function of inhibitor concentration fit to the Morrison equation with the enzyme concentration as a variable.
Type: protein-complex assay

Cyclin-dependent kinase 4/cyclin D1, sequence (P11802 whole entry): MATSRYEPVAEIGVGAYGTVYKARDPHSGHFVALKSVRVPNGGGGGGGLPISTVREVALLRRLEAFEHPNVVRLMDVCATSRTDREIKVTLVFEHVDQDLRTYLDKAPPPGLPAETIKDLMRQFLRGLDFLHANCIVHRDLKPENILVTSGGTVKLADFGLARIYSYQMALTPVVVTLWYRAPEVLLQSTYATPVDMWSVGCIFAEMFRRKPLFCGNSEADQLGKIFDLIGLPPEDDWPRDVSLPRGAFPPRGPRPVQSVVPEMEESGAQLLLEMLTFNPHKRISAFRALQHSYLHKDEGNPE
Cyclin-dependent kinase 4/cyclin D1, sequence (P24385 whole entry): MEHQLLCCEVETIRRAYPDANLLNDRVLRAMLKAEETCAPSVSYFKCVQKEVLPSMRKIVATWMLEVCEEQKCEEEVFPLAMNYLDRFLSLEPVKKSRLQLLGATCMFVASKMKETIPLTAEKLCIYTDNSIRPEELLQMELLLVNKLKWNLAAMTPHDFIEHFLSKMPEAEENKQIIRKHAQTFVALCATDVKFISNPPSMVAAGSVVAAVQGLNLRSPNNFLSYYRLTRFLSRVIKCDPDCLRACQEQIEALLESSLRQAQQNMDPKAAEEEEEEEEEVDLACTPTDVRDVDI

pKi: 10.00
SMILES: CC(C)n1c([C@H](C)O)nc2c(F)cc(-c3cc(N[C@@H]4CCN(S(C)(=O)=O)C[C@H]4O)ncc3Cl)cc21 (single isomer, unassigned)
